Measurements reported in PMC2807854, “Monoketone analogs of curcumin, a new class of Fanconi anemia pathway inhibitors” (Molecular Cancer, 2009).

Test system: proteasome
Assay: Proteasome assay in Xenopus extracts, both activities taken together
Format: biochemical, Xenopus laevis
Conditions: caspase-like and chymotrypsin-like activities
Source text: The proteasome is required for the monoubiquitylation of xFANCD2 in cells. As curcumin has proteasome inhibiton activities, we tested whether EF24 inhibits xFANCD2-Ub by this mechanism. Two proteasome activities (caspase-like and chymotrypsin-like) along with xFANCD2-Ub status were monitored in activated Xenopus extracts treated with various compounds (Fig. 2A).
Proteasome activities and xFANCD2-Ub were monitored using fluorogenic probes and immunoblotting, respectively. IC50 values were determined for each compound using a range of concentrations and represented in histogram graphs. For MG132, numbers above caspase-like and chymotrypsin-like histograms indicate the actual IC50 values. A representative experiment is shown (out of 3 repeats).
Fluorogenic peptides (Proteasome Substrate Pack #PW9905) specific for the chymotrypsin-like and caspase-like activities of the proteasome were incubated in Xenopus extracts treated with serial dilutions of various compounds. Fluorescence emitted by proteasome cleavage of the peptides was monitored using a fluorometer (FluoStar Galaxy, BMG Labtech) with 380 nm and 460 nm excitation and emission filters, respectively. Experiments were repeated at least twice.

Compound: O=C1/C(=C/c2ccccc2F)CNC/C1=C\c1ccccc1F [EF24, 3,5-bis(2-flurobenzylidene)piperidin-4-one]
- fold less active than curcumin for proteasome inhibition: 20 fold
